The values that follow come from ChEMBL document CHEMBL1140499, “Novel heparin/heparan sulfate mimics as inhibitors of HGF/SF-induced MET activation” (2007).

The test system of one assay is MDCK. The assay can be described thus: Inhibition of HGF/SF-induced migration of MDCK cells at 100 ug/mL after 4 hrs. It counts as functional. Particulars: Canis lupus familiaris.
For assay [1], the species on record is Cricetulus griseus. The experiment in a line: Inhibition of HGF/SF-induced MET receptor activation assessed as ERK activation at 100 ug/mL by Western blot. For orientation: In western blotting, separated proteins are transferred to a membrane and probed.
The species named for assay [2] is Cricetulus griseus. The assay can be described thus: Inhibition of FGF2-induced FGF receptor activation assessed as ERK activation at 100 ug/mL by Western blot.

The structures appear in SMILES notation. Calls of active or inactive are those of the source. The rule behind the calls is not given here.

In general, inhibition refers to the relative decrease from the control value, in per cent.

The molecule `O=C(O)c1cc(OC[C@@H](COS(=O)(=O)O)OS(=O)(=O)O)ccc1OC[C@H](COS(=O)(=O)O)OS(=O)(=O)O` had an inhibition at 100 µg/mL in the assay with MDCK of 57%. Further, the result in the assay filed under Cricetulus griseus [1] was Active. Besides, the result in the assay filed under Cricetulus griseus [2] was inactive.

Molecule `O=C(O)c1cc(OC[C@@H](COS(=O)(=O)O)OS(=O)(=O)O)ccc1OCCCCOS(=O)(=O)O` came in with an inhibition at 100 µg/mL in the assay on MDCK of 70%. Further, the result in the assay filed under Cricetulus griseus [1] was Active. The outcome in the assay filed under Cricetulus griseus [2] was inactive.
